# Measurements: paper PMC7265429, “Characterization of a new small-molecule inhibitor of HDAC6 in glioblastoma” (Cell Death & Disease, 2020)
# Tested on: GNS166 cells
# Experiment: Microarray whole-transcriptome gene expression analysis
# Format: cell-based, human
# Conditions: DMSO vs 5 µM SAHA, upregulated genes
# Description: Whole-transcriptome analysis was performed from 300 ng of RNA using HuGene-2_0-st-v1 expression array (Affymetrix), which covers 48,226 transcripts. Raw data were first checked for quality purposes through the Affymetrix® Expression Console™ Software v1.4.1 and TAC software v4.0. Then, data were normalized using the Robust Multi-array Average (RMA) and analyzed by Limma tool. Probesets with FDR-corrected p-values smaller than 0.05 were selected. Functional enrichment on Gene Ontology (GO) biological processes was performed on a smaller subset of the differentially expressed genes (corrected p-value < 0.001) by means of Broad Institute GSEA. […] The data that support this study have been deposited in NCBI´s Gene Expression Omnibus and are accessible through GEO series accession number GSE143887.
structure (smiles),measurement,setting,value
"O=C(CCCCCCC(=O)Nc1ccccc1)NO [SAHA, Suberoylanilide hydroxamic acid]",logFC NMUR2,transcript TC0500012531.hg.1,2.3
same,logFC PIM1,transcript TC0600007862.hg.1,1.267
same,logFC BCKDHB,transcript TC0600008632.hg.1,0.8913
same,logFC SLC16A10,transcript TC0600009143.hg.1,1.06
same,logFC TBPL1,transcript TC0600009508.hg.1,0.8103
same,logFC STK38,transcript TC0600011661.hg.1,0.8577
same,logFC SOGA3,transcript TC0600013119.hg.1,1.659
same,logFC STX7,transcript TC0600013193.hg.1,1.104
same,logFC CYB5R4,transcript TC0600014148.hg.1,0.9356
same,logFC ARL4A,transcript TC0700006737.hg.1,1.551
same,logFC AHR,transcript TC0700006795.hg.1,1.0742
same,logFC C7orf57,transcript TC0700007475.hg.1,1.163
same,logFC PRKAR2B,transcript TC0700008745.hg.1,1.383
same,logFC ANKRD7,transcript TC0700008898.hg.1,1.335
same,logFC SND1,transcript TC0700009020.hg.1,0.9855
same,logFC FAM71F1,transcript TC0700009060.hg.1,1.462
same,logFC DGKB,transcript TC0700010327.hg.1,0.979
same,logFC TMEM60,transcript TC0700011601.hg.1,0.8857
same,logFC FAM3C,transcript TC0700012427.hg.1,0.9259
same,logFC IQUB,transcript TC0700012456.hg.1,1.539
same,logFC RASA4,transcript TC0700013603.hg.1,1.334
same,logFC KIAA1456,transcript TC0800006802.hg.1,1.838
same,logFC PDGFRL,transcript TC0800006873.hg.1,1.146
same,logFC PLAT,transcript TC0800010275.hg.1,1.063
same,logFC PAG1,transcript TC0800010926.hg.1,1.472
same,logFC EXT1,transcript TC0800011579.hg.1,1.229
same,logFC SLC26A7,transcript TC0800012325.hg.1,0.8985
same,logFC PSAT1,transcript TC0900007667.hg.1,0.8807
same,logFC MLLT3,transcript TC0900009679.hg.1,1.79
same,logFC APBA1,transcript TC0900010350.hg.1,1.1769
same,logFC NR6A1,transcript TC0900011501.hg.1,1.227
same,logFC ALDH1A1,transcript TC0900012245.hg.1,1.351
same,logFC CDC14B,transcript TC0900012256.hg.1,1.18
same,logFC BAMBI,transcript TC1000007132.hg.1,1.194
same,logFC DNAJC1,transcript TC1000010006.hg.1,1.349
same,logFC ZNF215,transcript TC1100006749.hg.1,1.332
same,logFC GRIA4,transcript TC1100008948.hg.1,1.769
same,logFC C11orf88,transcript TC1100009023.hg.1,1.468
same,logFC SIK2,transcript TC1100009026.hg.1,0.9192
same,logFC NRGN,transcript TC1100009398.hg.1,0.9705
same,logFC FZD4,transcript TC1100011867.hg.1,1.1951
same,logFC CCDC82,transcript TC1100012052.hg.1,0.8598
same,logFC IL18,transcript TC1100012318.hg.1,1.544
same,logFC CDON,transcript TC1100012722.hg.1,2.237
same,logFC FAM89B,transcript TC1100013043.hg.1,0.8784
same,logFC IGF2,transcript TC1100013131.hg.1,1.158
same,logFC C12orf60,transcript TC1200006948.hg.1,1.183
same,logFC ARNTL2,transcript TC1200007147.hg.1,1.2211
same,logFC GDF11,transcript TC1200007809.hg.1,1.519
same,logFC TMTC2,transcript TC1200008322.hg.1,1.0601
same,logFC TMTC3,transcript TC1200008373.hg.1,1.159
same,logFC TXNRD1,transcript TC1200008675.hg.1,0.8282
same,logFC P2RX7,transcript TC1200009157.hg.1,1.148
same,logFC RHEBL1,transcript TC1200010612.hg.1,1.826
same,logFC ATP2B1,transcript TC1200011474.hg.1,1.035
same,logFC LRRC63,transcript TC1300007085.hg.1,1.37
same,logFC SLC46A3,transcript TC1300008468.hg.1,1.1281
same,logFC UBL3,transcript TC1300008497.hg.1,0.9113
same,logFC LCP1,transcript TC1300008840.hg.1,1.339
same,logFC KLF12,transcript TC1300009249.hg.1,1.022
same,logFC SLITRK1,transcript TC1300009376.hg.1,1.004
same,logFC FOXG1,transcript TC1400006791.hg.1,0.91
same,logFC SOCS4,transcript TC1400007221.hg.1,0.9561
same,logFC ARID4A,transcript TC1400007307.hg.1,0.9227
same,logFC SLC7A8,transcript TC1400008705.hg.1,1.877
same,logFC GCH1,transcript TC1400009239.hg.1,1.069
same,logFC KLHL28,transcript TC1400010737.hg.1,1.205
same,logFC TMOD2,transcript TC1500007238.hg.1,1.505
same,logFC LRRC49,transcript TC1500007735.hg.1,1.1742
same,logFC DENND4A,transcript TC1500009804.hg.1,1.04
same,logFC UACA,transcript TC1500009921.hg.1,1.398
same,logFC RGMA,transcript TC1500010501.hg.1,0.8186
same,logFC YPEL3,transcript TC1600009952.hg.1,1.349
same,logFC ACSM3,transcript TC1600011362.hg.1,1.318
same,logFC NLK,transcript TC1700007344.hg.1,1.006
same,logFC NGFR,transcript TC1700008209.hg.1,1.322
same,logFC DYNLL2,transcript TC1700008418.hg.1,0.9396
same,logFC MYO1D,transcript TC1700010358.hg.1,1.521
same,logFC MMD,transcript TC1700011181.hg.1,0.9396
same,logFC CBX4,transcript TC1700011953.hg.1,1.178
same,logFC UNC13A,transcript TC1900009984.hg.1,2.076
same,logFC KIAA1683,transcript TC1900010008.hg.1,1.003
same,logFC DIRAS1,transcript TC1900011842.hg.1,0.9114
same,logFC TGM2,transcript TC2000009058.hg.1,1.058
same,logFC KCNQ2,transcript TC2000009809.hg.1,1.266
same,logFC SRXN1,transcript TC2000009960.hg.1,0.9857
same,logFC SH3BGR,transcript TC2100007166.hg.1,0.8256
same,logFC ADAMTS1,transcript TC2100007821.hg.1,1.343
same,logFC TIMP3,transcript TC2200007150.hg.1,0.905
